Measured values published in PubChem BioAssay (NCI).
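Results reflect a 48-hour exposure of cells in 96-well plates to compound at five concentrations. Abbreviation: GI50, concentration required for 50% inhibition of growth. Definition used: TGI = concentration required for complete inhibition of growth.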

Experiments:
Assay in all cases: inhibition of tumour cell growth, NCI panel, 48 h
SF-539 CNS = system: SF-539 CNS
NCI-H226 lung = system: NCI-H226 lung
HOP-92 NSCLC = system: HOP-92 NSCLC
A549 NSCLC = system: A549 NSCLC
OVCAR-3 ovarian = system: OVCAR-3 ovarian
OVCAR-4 ovarian = system: OVCAR-4 ovarian
RPMI-8226 leukemia = system: RPMI-8226 leukemia
SNB-75 CNS = system: SNB-75 CNS
UACC-62 melanoma = system: UACC-62 melanoma
M14 melanoma = system: M14 melanoma

Compound	GI50 (SF-539 CNS) [µM]	TGI (SF-539 CNS) [µM]	GI50 (NCI-H226 lung) [µM]	TGI (NCI-H226 lung) [µM]	GI50 (HOP-92 NSCLC) [µM]	TGI (HOP-92 NSCLC) [µM]	GI50 (A549 NSCLC) [µM]	TGI (A549 NSCLC) [µM]	GI50 (OVCAR-3 ovarian) [µM]	TGI (OVCAR-3 ovarian) [µM]	GI50 (OVCAR-4 ovarian) [µM]	TGI (OVCAR-4 ovarian) [µM]	GI50 (RPMI-8226 leukemia) [µM]	TGI (RPMI-8226 leukemia) [µM]	GI50 (SNB-75 CNS) [µM]	TGI (SNB-75 CNS) [µM]	GI50 (UACC-62 melanoma) [µM]	TGI (UACC-62 melanoma) [µM]	GI50 (M14 melanoma) [µM]	TGI (M14 melanoma) [µM]
COc1ccc(Nc2ncc(Br)c(NCCCNC(=O)C3CCC3)n2)cc1	3.69	18.5	4.8	37.7	5.58	39.8	14.3	37.8	16.5	48.5	11.3	56	14	42.1	2.98	12.1	17.7	36.3	31.5	> 100
CCc1n(Cc2ccc3ccccc3n2)cc[n+]1Cc1ccc2ccccc2n1	0.681	15.8	2.56	30.8	0.0183	0.521	5.27	> 100	0.0878	6.66	0.0378	10.4	0.0172	10.1	0.141	2.4	0.186	3.05	2.93	21.7
Cc1c(S(C)(=O)=O)c(-c2cc(F)cc(N3CCN(c4ccc(NS(=O)(=O)c5ccc(N[C@H](CCN6CCC(C(=O)OCCCP(=O)(O)O)CC6)CSc6ccccc6)c(S(=O)(=O)C(F)(F)F)c5)cc4)CC3)c2)c(-c2ccc(Cl)cc2)n1C(C)C	> 100	> 100	> 100	> 100	0.0794	0.952	> 100	> 100	> 100	> 100	> 100	> 100	1.29	> 100	> 100	> 100	> 100	> 100	> 100	> 100
COc1ccc(-c2nc3sc(-c4ccc(Cl)cc4)cn3n2)cc1	1.85	21.5	11.1	> 50	0.915	7.61	1.59	5.89	1.72	7.2	0.766	1.63	3.67	> 50	1.61	6.85	8.24	> 50	> 50	> 50
O=C1C(c2c[nH]c3ccccc23)=C(c2c[nH]c3ccccc23)C(=O)N1O	> 25	> 25	> 25	> 25	2.89	21.7	> 25	> 25	> 25	> 25	> 25	> 25	> 25	> 25	> 25	> 25	24.6	> 25	> 25	> 25
COc1ccc2c(c1)C(=O)c1c-2n(CCCN=[N+]=[N-])c(=O)c2cc(N(C)C)ccc12	17.6	> 100	> 100	> 100	2.87	24.6	> 100	> 100	> 100	> 100	> 100	> 100	> 100	> 100	7.21	56.2	> 100	> 100	> 100	> 100
COc1ccc(C2SCC(=O)N2NC(=O)C(O)c2ccccc2)cc1OC (stereo not given)	> 100	> 100	> 100	> 100	> 100	> 100	> 100	> 100	> 100	> 100	> 100	> 100	> 100	> 100	> 100	> 100	> 100	> 100	> 100	> 100
Cc1ccc(S(=O)(=O)NCCNC2=CC(=O)c3nc4ccccc4c4ccnc2c34)cc1	19.1	38.3	22.2	54.4	20.3	55.7	15.2	44.5	17.5	46.4	26.8	> 100	10.5	> 100	18.3	41.3	20.6	44.5	15.7	58.2
COc1cc(/C=C\c2ccccc2)cc(OC)c1OC		7.47		24.1		21.8		> 80.3		5.58		> 61		46.2		6.9		41.2		22.1
COc1ccc(N2Cc3cnc(Nc4ccccc4)nc3N([C@@H]3CC[C@@H](O)C3)C2=O)cc1	0.652	5.41	0.523	> 25	1.16	10.7	5.16	> 25	10.9	> 25	2.43	> 25	5.72	> 25	0.377	3.58	2.74	> 25	3.7	> 25
O=c1[nH]c(=O)n([C@@H]2C[C@H](CO)[C@H](O)C2)cc1/C=C/Br		> 100		> 100		> 100		> 100		> 100		> 100		> 100		> 100		> 100		> 100
